Laboratory results published in US8710085B2, “Pyrrolidine-1,2-dicarboxamide derivatives” (Novartis AG, priority 2008, dated 2014).

Experiments:
[1] = In vitro metabolic clearance, human liver microsomes (CYP MetCL-Hu); assay type: in vitro ADME; details: human liver microsomes 0.5 mg/mL, test article 1.0 μM, NADPH, 37° C.; read-out: CYP MetCL-Hu/CL(int)
Method: (§1) Final test article and protein concentrations, as well as incubation duration, are shown below (Table 1). Low test article concentrations were selected to comply with the assumption that reaction kinetics are evaluated at a concentration less than (or approximately equal to) Km. DMSO is known to have an inhibitory effect on CYP activity. Therefore, the concentration of DMSO in the incubation media has been restricted to 0.01% (v/v) so that interference to the metabolic process is minimized.
(§2) A typical experiment is performed in 96-well format with shaking incubation at 37° C. […] A 30 minutes negative control incubation (minus cofactor) is also performed to assess CYP-unrelated stability issues (eg, chemical instability, CYP-independent metabolism).
In general, TA's in 10 mM DMSO are diluted 1:1000 into 0.6% ACN (v/v) in DiH20 to 10 μM. […] For evaluation of UGT-mediated metabolism, the suspension may be first pretreated by 5 min incubation on ice with alamethicin (25 μg/mg of microsomal protein). TA (35 μL) is added to 140 μL of the microsomal suspensions for 175 μL enzymesubstrate mixture. […] The 30 min negative control incubation is processed by combining 25 μL of enzyme.substrate mixture with an equal volume of 50 mM KPi containing 4 mM MgCl2. Following a 30 minute incubation at 37° C., the mix is quenched by adding 50 μL of ACN containing the MS internal standard (2 μM alprenolol). The T=0 min time point is processed by combining 25 μL of enzyme.substrate mixture directly with 50 μL of ACN containing the MS internal standard (2 μM alprenolol). 25 μL of the cofactor solution is added (2 mM NADPH in 50 mM KPi plus 4 mM MgCl2; optionally including 2 mM UDPGA for CYP+UGT assays) to simulate the complete quenched reaction mixture.
(§3) The bulk reactions for the remaining time points are initiated by addition of 125 μL of cofactor solution (2 mM NADPH in 50 mM KPi plus 4 mM MgCl2) to the remaining 125 μL of enzyme.substrate mixture. […] All the samples are centrifuged at ˜3400×g at 4° C. for 10 min and the supernatants are analyzed by LC-MS/MS for quantitation of remaining TA. […]

[2] = In vitro metabolic clearance, rat liver microsomes (CYP MetCL-Ra); assay type: in vitro ADME; details: rat liver microsomes 0.5 mg/mL, test article 1.0 μM, NADPH, 37° C.; read-out: CYP MetCL-Ra/CL(int)
Method: as §1, §2
In general, TA's in 10 mM DMSO are diluted 1:1000 into 0.6% ACN (v/v) in DiH20 to 10 μM. […] For evaluation of UGT-mediated metabolism, the suspension may be first pretreated by 5 min incubation on ice with alamethicin (25 μg/mg of microsomal protein). […]
as §3

[3] = biological target: T1, PI3Kδ (Homo sapiens, UniProt O00329); assay: PI3K KinaseGlo assay, PI3Kδ; assay type: biochemical; details: 10 nM enzyme, 1 μM ATP, 30 mins, room temperature, read-out: PI3Kd/IC50
T1 construct: p85iSH2(461-568)-GGGGGG-p110δ(2-1044)-His; made in house; host or cells: baculovirus, Tn5 insect cells

[4] = biological target: T2, PI3Kβ (Homo sapiens, UniProt P42338); assay: PI3K KinaseGlo assay, PI3Kβ; assay type: biochemical; details: KinaseGlo; 25 nM enzyme, 1 μM ATP, 30 mins, room temperature; read-out: PI3Kb/IC50
T2 construct: p110β(2-1070)-His; made in house; host or cells: baculovirus, Tn5 insect cells
Method: (§4) PI3K KinaseGlo assay: 50 mL of compound dilutions were dispensed onto black 384-well low volume Non Binding Styrene (NBS) plates (Costar Cat. No. NBS#3676). L-a-phosphatidylinositol (PI), provided as 10 mg/ml solution in methanol, was transferred into a glass tube and dried under nitrogen beam. It was then resuspended in 3% OctylGlucoside (OG) by vortexing and stored at 4° C. The KinaseGlo Luminescent Kinase Assay (Promega, Madison/WI, USA) is a homogeneous HTS method of measuring kinase activity by quantifying the amount of ATP remaining in solution following a kinase reaction.
(§5) 5 μL of a mix of PI/OG with the PI3K subtype were added (Table 1). Kinase reactions were started by addition of 5 μl of ATP-mix containing in a final volume 10 μL 10 mM TRIS-HCl pH 7.5, 3 mM MgCl2, 50 mM NaCl, 0.05% CHAPS, 1 mM DTT and 1 μM ATP, and occurred at room temperature. […] The standard was used as a reference compound and included in all assay plates in the form of 16 dilution points in duplicate.
The PI3Kα, PI3Kβ and PI3Kδ constructs are fusion of p85α iSH2 domain and the respective p110 isoforms. The p85α fragment and p110 isoform genes were generated by PCR from first strand cDNA generated by RT-PCR from commercial RNA from placenta, testis and brain as described below. The PI3Kγ construct was obtained from Roger Williams lab, MRC Laboratory of Molecular Biology, Cambridge, UK (November, 2003) and is described (Pacold, Michael E.; Suire, Sabine; Perisic, Olga; Lara-Gonzalez, Samuel; Davis, Colin T.; Walker, Edward H.; Hawkins, Phillip T.; Stephens, Len; Eccleston, John F.; Williams, Roger L. Crystal structure and functional analysis of Ras binding to its effector phosphoinositide 3-kinase gamma. Cell (2000), 103(6), 931-943).
BV949: PCR products for the inter SH2 domain (iSH2) of the p85 PI3Kα, PI13Kβ and PI3Kδ subunit and for the full-length p110β subunit were generated and fused by overlapping PCR. […] The p11013 fragment was obtained by PCR using as template a p110β clone (from unknown source that was sequence verified) using primers gwG130-p04 (5′-[…]-[…]-3′) (SEQ ID NO: 9) which contains linker sequences and the 5′ end of p110β and gwG130-p06 (5′-[…]-[…]-3′) (SEQ ID NO: 10) which contains sequences of the 3′ end of p110-β fused to a Histidine tag. […] This final product was recombined in a Gateway (Invitrogen) […] into the donor vector pDONR201 (Invitrogen) to generate the ORF253 entry clone. This clone was verified by sequencing and used in a Gateway LR reaction (Invitrogen) to transfer the insert into the Gateway adapted pBlueBac4.5 (Invitrogen) vector for generation of the baculovirus expression vector LR280.
(§6) PI3Kα, PI3Kβ and PI3Kγ were purified in two chromatographic steps: immobilized metal affinity chromatography (IMAC) on a Ni sepharose resin (GE Healthcare) and gel filtration utilizing a Superdex 200 26/60 column (GE Healthcare). All buffers were chilled to 4° C. and lysis was performed chilled on ice. Column fractionation was performed at room temperature. All buffers used to purify PI3Kβ contained 0.05% Triton X100 in addition to what is described below.
The lysate was centrifuged at 45,000 g for 30 minutes, and the supernatant was loaded onto a pre-equilibrated IMAC column (3 mL resin/100 mL lysate). […] Protein was eluted with 20 mM Tris-Cl, pH 7.5, 0.5 M NaCl, 5% glycerol, 250 mM imidazole, 1 mM NaF, 0.1 μg/mL OAA, 5 mM BME, 1× Complete protease inhibitor cocktail—EDTA-free. Pertinent fractions were analyzed by SDS-PAGE and pooled accordingly. The protein was further purified by gel filtration on a Superdex 200 26/60 column equilibrated in 20 mM Tris-Cl, pH 7.5, 0.5 M NaCl, 5% glycerol, 1 mM NaF, 5 mM DTT, 1× Complete protease inhibitor cocktail—EDTA-free. Pertinent fractions were analyzed by SDS-PAGE and pooled accordingly.

[5] = biological target: T3, PI3Kα (Homo sapiens, UniProt P42336); assay: PI3K KinaseGlo assay, PI3Kα; assay type: biochemical; details: KinaseGlo, 10 nM enzyme, 1 μM ATP, 30 mins, room temperature
T3 construct: p110α(21-1068)-His; made in house; host or cells: baculovirus, Tn5 insect cells

[6] = biological target: T4, PI3Kγ (Homo sapiens, UniProt P48736, Q459R); assay: PI3K KinaseGlo assay, PI3Kγ; assay type: biochemical; details: 150 nM enzyme, 1 μM ATP, 90 mins, room temperature, read-out: PI3Kg/IC50
T4 construct: p110γ(Δ143-[Met144-1102])-His; made in house; host or cells: Tn5 insect cells; construct from Roger Williams lab, MRC LMB
Method: as §4, with “L-a-phosphatidylinositol” for “PI3K KinaseGlo assay: 50 mL of compound dilutions were dispensed onto black 384-well low volume Non Binding Styrene (NBS) plates (Costar Cat. No. NBS#3676). L-a-phosphatidylinositol”
as §5, with “duplicate. […]” for “duplicate.”
as §6
The lysate was centrifuged at 45,000 g for 30 minutes, and the supernatant was loaded onto a pre-equilibrated IMAC column (3 mL resin/100 mL lysate). […] Protein was eluted with 20 mM Tris-Cl, pH 7.5, 0.5 M NaCl, 5% glycerol, 250 mM imidazole, 1 mM NaF, 0.1 μg/mL OAA, 5 mM BME, 1× Complete protease inhibitor cocktail—EDTA-free. Pertinent fractions were analyzed by SDS-PAGE and pooled accordingly. The protein was further purified by gel filtration on a Superdex 200 26/60 column equilibrated in 20 mM Tris-Cl, pH 7.5, 0.5 M NaCl, 5% glycerol, 1 mM NaF, 5 mM DTT, 1× Complete protease inhibitor cocktail—EDTA-free. Pertinent fractions were analyzed by SDS-PAGE and pooled accordingly. An equal volume of Dialysis Buffer (20 mM Tris-Cl, pH 7.5, 500 mM NaCl, 50% glycerol, 5 mM NaF, 5 mM DTT) was added to the pool and than dialyzed against Dialysis Buffer two changes (one change overnight). Protein was stored at −20° C.

T4 sequence (P48736 with tags, fused parts or gaps Q459R): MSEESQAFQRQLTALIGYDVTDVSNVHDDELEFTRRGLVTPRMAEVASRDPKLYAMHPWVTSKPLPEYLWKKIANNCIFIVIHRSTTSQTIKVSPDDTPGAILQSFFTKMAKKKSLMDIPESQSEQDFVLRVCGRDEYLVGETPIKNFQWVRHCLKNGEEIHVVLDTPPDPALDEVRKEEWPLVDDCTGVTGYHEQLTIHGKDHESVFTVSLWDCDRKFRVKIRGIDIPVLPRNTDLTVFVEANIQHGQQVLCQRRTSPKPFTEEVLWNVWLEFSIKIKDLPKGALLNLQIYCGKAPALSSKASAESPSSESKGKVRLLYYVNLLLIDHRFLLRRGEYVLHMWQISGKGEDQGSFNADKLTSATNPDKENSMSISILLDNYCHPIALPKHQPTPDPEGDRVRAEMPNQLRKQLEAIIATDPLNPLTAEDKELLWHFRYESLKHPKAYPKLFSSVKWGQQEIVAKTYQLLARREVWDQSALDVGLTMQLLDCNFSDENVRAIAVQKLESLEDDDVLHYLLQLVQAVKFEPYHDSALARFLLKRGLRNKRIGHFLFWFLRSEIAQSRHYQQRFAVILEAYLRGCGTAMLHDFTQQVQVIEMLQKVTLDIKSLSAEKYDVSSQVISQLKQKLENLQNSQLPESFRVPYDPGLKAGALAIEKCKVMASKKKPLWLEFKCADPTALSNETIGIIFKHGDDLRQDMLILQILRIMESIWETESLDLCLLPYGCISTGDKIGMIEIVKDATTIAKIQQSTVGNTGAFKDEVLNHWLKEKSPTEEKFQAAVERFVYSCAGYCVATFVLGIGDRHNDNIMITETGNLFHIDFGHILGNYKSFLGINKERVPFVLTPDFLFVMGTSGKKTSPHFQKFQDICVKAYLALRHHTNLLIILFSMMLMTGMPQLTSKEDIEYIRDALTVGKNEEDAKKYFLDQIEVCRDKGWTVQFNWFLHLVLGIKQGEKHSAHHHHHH
T1 sequence (O00329 with tags, fused parts or gaps): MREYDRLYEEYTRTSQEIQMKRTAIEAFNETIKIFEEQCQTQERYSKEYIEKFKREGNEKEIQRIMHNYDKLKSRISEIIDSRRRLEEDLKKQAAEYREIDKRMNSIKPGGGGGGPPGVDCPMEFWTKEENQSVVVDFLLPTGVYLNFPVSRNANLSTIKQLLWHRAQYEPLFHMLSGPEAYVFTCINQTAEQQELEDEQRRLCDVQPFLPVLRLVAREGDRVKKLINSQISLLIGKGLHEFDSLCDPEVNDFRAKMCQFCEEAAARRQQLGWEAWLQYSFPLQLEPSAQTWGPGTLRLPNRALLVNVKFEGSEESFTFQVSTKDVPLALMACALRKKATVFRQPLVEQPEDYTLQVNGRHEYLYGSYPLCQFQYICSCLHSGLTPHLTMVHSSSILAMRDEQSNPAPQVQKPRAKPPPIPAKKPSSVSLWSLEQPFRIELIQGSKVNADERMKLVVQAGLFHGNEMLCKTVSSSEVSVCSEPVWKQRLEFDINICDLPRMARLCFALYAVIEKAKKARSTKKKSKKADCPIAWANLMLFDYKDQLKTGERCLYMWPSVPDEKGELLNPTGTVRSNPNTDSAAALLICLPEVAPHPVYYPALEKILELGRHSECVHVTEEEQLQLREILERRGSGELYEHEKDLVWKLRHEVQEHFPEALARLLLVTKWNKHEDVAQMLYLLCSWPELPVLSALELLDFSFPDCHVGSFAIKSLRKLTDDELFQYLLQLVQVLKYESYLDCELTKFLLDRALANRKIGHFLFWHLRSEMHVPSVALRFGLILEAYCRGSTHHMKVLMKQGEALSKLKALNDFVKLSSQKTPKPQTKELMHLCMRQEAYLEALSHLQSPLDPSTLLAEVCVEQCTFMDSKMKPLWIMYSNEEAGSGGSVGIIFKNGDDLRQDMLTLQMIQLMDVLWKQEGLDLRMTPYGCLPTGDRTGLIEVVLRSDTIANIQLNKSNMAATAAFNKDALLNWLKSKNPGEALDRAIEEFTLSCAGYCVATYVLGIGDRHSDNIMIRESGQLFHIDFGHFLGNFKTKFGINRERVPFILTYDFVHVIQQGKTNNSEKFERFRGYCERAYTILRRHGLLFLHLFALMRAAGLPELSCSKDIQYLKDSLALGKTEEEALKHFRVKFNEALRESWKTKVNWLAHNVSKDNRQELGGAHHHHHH
T2 sequence (P42338 with tags, fused parts or gaps): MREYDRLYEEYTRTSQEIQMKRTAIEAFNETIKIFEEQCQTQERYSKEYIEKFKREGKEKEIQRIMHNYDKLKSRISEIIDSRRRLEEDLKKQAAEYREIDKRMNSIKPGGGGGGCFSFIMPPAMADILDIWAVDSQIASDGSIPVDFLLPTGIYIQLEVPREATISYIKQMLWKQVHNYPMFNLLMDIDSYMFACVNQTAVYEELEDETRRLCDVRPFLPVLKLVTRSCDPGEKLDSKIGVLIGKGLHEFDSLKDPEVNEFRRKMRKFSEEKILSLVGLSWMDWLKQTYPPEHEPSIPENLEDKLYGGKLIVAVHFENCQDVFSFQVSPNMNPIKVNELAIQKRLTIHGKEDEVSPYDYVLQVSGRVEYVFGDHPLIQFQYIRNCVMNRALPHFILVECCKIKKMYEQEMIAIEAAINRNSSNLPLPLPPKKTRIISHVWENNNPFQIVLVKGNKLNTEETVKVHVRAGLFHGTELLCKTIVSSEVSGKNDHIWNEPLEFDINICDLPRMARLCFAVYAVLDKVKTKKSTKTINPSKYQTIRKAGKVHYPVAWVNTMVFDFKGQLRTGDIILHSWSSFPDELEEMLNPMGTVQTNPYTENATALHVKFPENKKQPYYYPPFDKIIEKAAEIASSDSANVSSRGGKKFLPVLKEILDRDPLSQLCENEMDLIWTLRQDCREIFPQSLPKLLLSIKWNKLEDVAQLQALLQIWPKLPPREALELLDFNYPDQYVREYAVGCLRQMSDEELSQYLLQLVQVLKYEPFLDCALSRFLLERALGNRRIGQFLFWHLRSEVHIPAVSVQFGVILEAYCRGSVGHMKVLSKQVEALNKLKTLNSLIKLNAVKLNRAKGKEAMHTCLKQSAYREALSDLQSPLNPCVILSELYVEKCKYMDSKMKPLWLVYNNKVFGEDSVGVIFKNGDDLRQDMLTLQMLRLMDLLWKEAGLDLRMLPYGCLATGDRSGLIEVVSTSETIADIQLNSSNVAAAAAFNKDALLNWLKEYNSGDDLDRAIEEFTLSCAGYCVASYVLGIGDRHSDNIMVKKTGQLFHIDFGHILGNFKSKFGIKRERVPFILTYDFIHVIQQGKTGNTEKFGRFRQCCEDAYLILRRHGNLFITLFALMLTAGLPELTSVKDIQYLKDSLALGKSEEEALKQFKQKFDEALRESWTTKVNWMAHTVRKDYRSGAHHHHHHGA
T3 sequence (P42336 with tags, fused parts or gaps): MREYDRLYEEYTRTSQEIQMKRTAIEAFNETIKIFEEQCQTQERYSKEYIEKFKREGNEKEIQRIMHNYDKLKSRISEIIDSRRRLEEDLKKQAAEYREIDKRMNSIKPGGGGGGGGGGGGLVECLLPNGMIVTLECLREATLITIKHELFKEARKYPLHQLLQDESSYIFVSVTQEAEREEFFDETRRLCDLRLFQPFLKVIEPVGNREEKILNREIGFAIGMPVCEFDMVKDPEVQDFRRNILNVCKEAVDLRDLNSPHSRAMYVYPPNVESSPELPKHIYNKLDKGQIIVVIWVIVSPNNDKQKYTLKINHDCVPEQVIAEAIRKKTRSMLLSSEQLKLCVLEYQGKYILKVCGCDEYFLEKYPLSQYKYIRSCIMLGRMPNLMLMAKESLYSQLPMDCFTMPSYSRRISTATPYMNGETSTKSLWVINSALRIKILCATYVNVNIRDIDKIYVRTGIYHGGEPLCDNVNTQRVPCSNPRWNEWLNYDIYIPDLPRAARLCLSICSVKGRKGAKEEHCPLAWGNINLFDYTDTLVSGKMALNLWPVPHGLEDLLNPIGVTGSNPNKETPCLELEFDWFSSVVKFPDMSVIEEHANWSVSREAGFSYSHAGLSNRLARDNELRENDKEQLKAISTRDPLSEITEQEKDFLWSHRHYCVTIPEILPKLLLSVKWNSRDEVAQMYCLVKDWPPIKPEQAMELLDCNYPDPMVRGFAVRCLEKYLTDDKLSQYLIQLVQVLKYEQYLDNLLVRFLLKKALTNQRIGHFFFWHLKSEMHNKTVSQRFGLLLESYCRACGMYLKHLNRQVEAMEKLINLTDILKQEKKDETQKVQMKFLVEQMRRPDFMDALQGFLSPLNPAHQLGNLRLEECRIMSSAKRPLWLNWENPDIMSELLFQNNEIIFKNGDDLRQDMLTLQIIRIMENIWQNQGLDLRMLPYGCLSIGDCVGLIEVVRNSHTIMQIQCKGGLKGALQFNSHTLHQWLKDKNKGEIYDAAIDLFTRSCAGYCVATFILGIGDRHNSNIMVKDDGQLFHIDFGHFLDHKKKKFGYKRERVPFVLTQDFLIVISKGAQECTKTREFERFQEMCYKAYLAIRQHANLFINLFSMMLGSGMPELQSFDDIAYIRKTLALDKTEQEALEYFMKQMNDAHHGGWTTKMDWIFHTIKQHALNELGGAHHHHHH

Work on `Cc1nc(NC(=O)N2CCC[C@H]2C(N)=O)sc1-c1ccnc(C(C)(C)C(F)(F)F)c1` [Example 15, (S)-Pyrrolidine-1,2-dicarboxylic acid 2-amide 1-({4-methyl-5-[2-(2,2,2-trifluoro-1,1-dimethyl-ethyl)-pyridin-4-yl]-thiazol-2-yl}-amide)] yielded a microsomal CLint at 1 μM [1] of 33 µL/min/mg.
With `Cc1nc(NC(=O)N2CCC[C@H]2C(N)=O)sc1-c1ccnc(CC2CC2)n1` [Example 70, (S)-Pyrrolidine-1,2-dicarboxylic acid 2-amide 1-{[5-(2-cyclopropylmethyl-pyrimidin-4-yl)-4-methyl-thiazol-2-yl]-amide}] the melting point was 220 to 222 °C.
`[2H]C([2H])([2H])C(c1nccc(-c2sc(NC(=O)N3CCC[C@H]3C(N)=O)nc2C)n1)(C([2H])([2H])[2H])C([2H])([2H])[2H]` [Example 61, (S)-Pyrrolidine-1,2-dicarboxylic acid 2-amide 1-{[5-(2-d9-tert-butyl-pyrimidin-4-yl)-4-methyl-thiazol-2-yl]-amide}] showed a microsomal CLint at 1 μM [2] of 22 µL/min/mg and a microsomal CLint at 1 μM [1] of 19 µL/min/mg.
With `Cc1nc(NC(=O)N2CCC[C@H]2C(N)=O)sc1-c1ccnc(C(C)(C)CF)n1` [Example 71, (S)-Pyrrolidine-1,2-dicarboxylic acid 2-amide 1-({5-[2-(2-fluoro-1,1-dimethylethyl)-pyrimidin-4-yl]-4-methyl-thiazol-2-yl}-amide)] the melting point was 187 to 190 °C.
With `Cc1nc(NC(=O)N2CCC[C@H]2C(N)=O)sc1-c1ccnc(C2CC2)n1` [Example 59, (S)-Pyrrolidine-1,2-dicarboxylic acid 2-amide 1-({4-methyl-5-[2-cyclopropyl-pyrimidin-4-yl]thiazol-2-yl-}-amide)] the IC50 [3] was 881 nM, the IC50 [4] was 3500 nM and the IC50 ([5]; read-out: PI3Ka/IC50) was 64 nM. For the same compound, the IC50 [6] was 917 nM.
Work on `CCN(CC)c1nccc(-c2sc(NC(=O)N3CCC[C@H]3C(N)=O)nc2C)n1` [Example 63, (S)-Pyrrolidine-1,2-dicarboxylic acid 2-amide 1-{[5-(2-diethylamino-pyrimidin-4-yl)-4-methyl-thiazol-2-yl]-amide}] yielded an IC50 [3] of 98 nM, an IC50 [4] of 1200 nM and a PI3Ka/IC50 [5] of 0.016 umol I-1. For the same compound, the IC50 [6] was 790 nM.
For `Cc1cc(-c2sc(NC(=O)N3CCC[C@H]3C(N)=O)nc2C)nc(C(C)(C)C)n1` [Example 72, (S)-Pyrrolidine-1,2-dicarboxylic acid 2-amide 1-{[5-(2-tert-butyl-6-methylpyrimidin-4-yl)-4-methyl-thiazol-2-yl]-amide}], the melting point was 197 to 199 °C.
